Results taken from US20090312277A1, “Compositions And Methods For Reversing Or Preventing Resistance Of A Cancer Cell To A Cytotoxic Agent” (priority 2004, published 2009).
Peptide text beside a SMILES is read from it. * marks the point of attachment. Cbz = O=C(OCc1ccccc1)*; CHN2 = [N-]=[N+]=C*; tBu = CC(C)(C)*

Columns and labels:
p21/WAF1 = test: Western blot of p21/WAF1 in SKN-SH/R cells; type: cell-based, human; conditions: 24 hours
Protocol: (§1) Doxorubicin resistant human neuroblastoma cells (SKN-SH/R) were subjected, in 25 cm^2 flasks, to treatment with a cathepsin L inhibitor and doxorubicin each, alone or in combination. After 24 hours of incubation, culture medium was removed and the cells washed twice with PBS. Proteins were solubilized with 150 μl of lysis buffer (50 mM HEPES pH 7.4, 150 mM NaCl, 100 mM NaF, 1 mM MgCl2, 1.5 mM EGTA, 10% glycerol, 1% Triton X100, 1 μg/ml leupeptin, 1 mM phenyl-methyl-sulfonyl-fluoride). Equal quantities of protein were separated by electrophoresis on a 12% SDS-PAGE gel and transferred to Immobilon-P membranes (Millipore, Bedford, Mass.). P21/WAF1 and cleaved (active) caspase-3 were detected by reaction with specific primary antibodies (P21/WAF1 primary antibody from Santa Cruz Biotechnologies, Santa Cruz, Calif.; and caspase-3 primary antibody from Cell Signaling Technology, Inc., Beverly, Mass.) after one hour of incubation at room temperature in PBS (pH7.4). This was followed by incubation of the membrane for 1 hour at room temperature with presence of secondary anti-Rabbit antibody linked to horseradish peroxidase (Bio-Rad Laboratories, Hercules, Calif.) (1/1000 in PBS). Reactive bands were detected by chemiluminescence.

[1] = tested on: drug resistant osteosarcoma cells (Saos2-R); test: Cell count of drug resistant osteosarcoma cells after siRNA or inhibitor and doxorubicin; type: cell-based; conditions: doxorubicin 10^−5 M for 48 hours, untreated 1.6e+6 AU
From the text: The human cathepsin L siRNA was designed in our laboratory by studying a cDNA sequence of the human cathepsin L gene (SEQ ID NO: 2). We selected a segment defined by nucleotide numbers 91-111, sent that sequence to a contract laboratory (Dharmacon, Lafayette, Colo.), which synthesized an siRNA molecule based on the aforementioned segment. The segment of the human cathepsin L cDNA we used was: […] (91-111) (SEQ ID NO: 2). On the day before transfection, 3×10^5 drug resistant osteosarcoma cells (Saos2-R) were seeded in 6-well plates and grown in 2.5 ml of DMEM supplemented with 10% FBS. After 24 hours in culture, 25 μl of 20 μM stock solution of siRNA duplexes were transfected into cells with GeneSilencer™ SiRNA Transfection Reagent Kit (Gene Therapy Systems, Inc., San Diego, Calif.). Briefly, adherent cells were transfected in 6 well plates. Cells were about 70% confluent. In one tube, 5 μl of GeneSilencer™ was mixed with 25 μl of serum free medium. In a second tube, 25 μl of siRNA diluent was mixed with […] of serum free medium and 20 μl of siRNA (100 nM). After incubation of tubes 1 and 2, at room temperature for 5 min, they were mixed together into tube 3 and incubated for an additional 5 min. The content of tube 3 was added to the cells in the 6 well plates and incubated for 2 days before the addition of the drug. After 48 hours of incubation, doxorubicin (10^−5 M) was added and maintained in culture for an additional 48 hours before analysis. The cells were counted and protein lysates were used to detect cathepsin L expression by Western blot as described above.

caspase-3 = test: Western blot of cleaved (active) caspase-3 in SKN-SH/R cells; type: cell-based, human; conditions: cathepsin L inhibitor 10 μM + doxorubicin 10^−6M, 24 hours
Protocol: as §1

Purified cathepsin L = target: T1, Purified cathepsin L (Homo sapiens, UniProt P07711); test: Cathepsin L activity, fluorogenic substrate (CV-Cathepsin L Detection Kit); type: biochemical; conditions: inhibitor 10 μM, 200 ng cathepsin L; positive control 4e+5 AU, negative control 0.75e+5 AU
T1 construct: purchased Biomol, Plymouth Meeting, Pa
T1 sequence (P07711 114-333, species assumed): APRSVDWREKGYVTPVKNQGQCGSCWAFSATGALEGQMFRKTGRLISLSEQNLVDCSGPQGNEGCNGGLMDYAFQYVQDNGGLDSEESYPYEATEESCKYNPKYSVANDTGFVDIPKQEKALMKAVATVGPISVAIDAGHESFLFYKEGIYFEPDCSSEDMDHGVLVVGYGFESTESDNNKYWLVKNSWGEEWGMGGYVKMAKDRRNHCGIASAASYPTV
Protocol: Cathepsin L activity was measured using a commercially available kit according to the manufacturer's procedure (CV-Cathepsin L Detection Kit; Biomol, Plymouth Meeting, Pa.). Purified cathepsin L (Biomol, Plymouth Meeting, Pa.) (200 ng) was incubated with each inhibitor (10 μM) in a 96 well plate for 15 min at room temperature in 100 μl of reaction buffer (100 mM sodium acetate pH 5, 1 mM EDTA (ethylenediaminetetraacetic acid), and 4 mM dithiothreitol). The protease inhibitors tested were: lactacystin and inhibitors of cathepsin L, B, S, and K. 100 μl of a fluorogenic substrate (CV-Cathepsin L Detection Kit; Biomol, Plymouth Meeting, Pa.) were added and incubated for an additional 30 min at room temperature. Fluorescence was measured in a plate reader (Victor Multilabel Counter, Perkin Elmer) at 380 nm excitation and […] emission wavelengths.

[2] = tested on: Saos2 doxorubicin resistant; test: MTT cytotoxicity assay, Saos2 doxorubicin resistant cells; type: cell-based; conditions: Homo sapiens, SAOS-2, 96 hours, read-out: IC50 of doxorubicin alone (converted)
Protocol: (§2) Cytotoxic activity of doxorubicin and cysteine protease inhibitors were quantitatively determined by a calorimetric assay utilizing 3-(4,5-dimethyl-2-thiazolyl) 2,5-diphenyl tetrazolium bromide (MTT; Sigma-Aldrich, St. Louis, Mo.). Briefly, cells were seeded at 10^4 cells/well in 96-well plates and maintained in culture for 24 hours at 37° C. in DMEM supplemented with 10% FBS. Drugs were added to designated wells and cells were incubated for 96 hours, following which MTT (10 μL of 5 mg/ml solution) was added to each 100 μl well and incubated for 4 hours at 37° C. The cells were solubilized by incubation with 100 μl of HCl 0.5N in isopropanol for 15 hours at 37° C. The optical density of this solution was measured at 570 nm and the percentage of viable cells estimated by comparison with untreated control cells.
(§3) The effect of cathepsin L inhibitor was tested on drug sensitive and resistant (R) cell lines corresponding to various cancer types, including the human neuroblastoma cell line SKN-SH (ATCC Cat. No. HTB-11), the murine neuroblastoma cell line Neuro2A (ATCC Cat. No. CCL-131), the osteosarcoma cells Saos2 (ATCC Cat. No. HTB-85) and the leukemia cell line HL-60 (ATCC Cat. No. CCL240). The cells were treated with cathepsin L inhibitor with or without doxorubicin as described above. Cell viability was calculated after 96 hours of incubation with the drug combination. […]

[3] = tested on: ovarian cancer (A2780/CR); test: cells; conditions: Homo sapiens, A2780, 192 h, read-out: percentage of viable cells, single agent
Protocol: (§7) The following additional cell lines were tested: breast cancer (MCF-7/doxR) (MCF: ATCC Cat. No. HTB-22) and ovarian cancer (A2780/CR; European collection of cell culture cat# 931112519, Salisbury, UK). Cells were treated with doxorubicin (10^−5M) and/or a cathepsin L inhibitor (25 μM) for eight days. Viable cell number was counted and normalized to 100% of non-treated cells.

[4] = tested on: breast cancer (MCF-7/doxR); test: cells; conditions: Homo sapiens, MCF7, 192 h, read-out: percentage of viable cells, single agent
Protocol: as §7

SKN-SH/R cells = test: MTT cytotoxicity assay, doxorubicin-resistant neuroblastoma cells; type: cell-based; conditions: Homo sapiens, SK-N-SH, 96 h, read-out: IC50 (concentration at which 50% of cells remained viable) of the cytotoxic agent alone, SKN-SH/R cells, agent alone (control cells), 96 hours, MTT
Protocol: (§4) Human neuroblastoma SKN-SH cells (ATCC Cat. No. HTB-11) were cultured in Dulbecco's Modified Eagles Medium (DMEM; Gibco, Grand Island, N.Y.) supplemented with 10% fetal bovine serum (FBS; Sigma-Aldrich, St. Louis, Mo.) at 37° C. in a 95% Air/5% CO2 atmosphere. Resistant cells to doxorubicin (SKN-SH/R) were selected by stepwise exposure to drug concentrations ranging from 10^−9 M through 10^−6 M over a time period of three months. The resulting cell line was subjected to treatment with the doxorubicin alone or in combination with: proteosome inhibitor (Lactacystin), cathepsin B inhibitor (L-3-trans-(Propylcarbamoyl)oxirane-2-carbonyl]-L-isoleucyl-L praline), cathespin L inhibitor (Z-Phe-Tyr(t-Bu)-diazomethylketone), cathespin K inhibitor (1,3-Bis(N-CBZ-Leu-NH)-2-propanonel,3 -Di(N-carbonbenzoyloxy-L-leucyl)amino acetone), or cathespin S inhibitor (Z-Phe-Leu-COCHO.H2O), (all available from Calbiochem-Novabiochem, San Diego) at 10 μM each to determine whether they affect cell response to doxorubicin.
(§5) Cytotoxic activity of doxorubicin and cysteine protease inhibitors were quantitatively determined by a calorimetric assay utilizing 3-(4,5-dimethyl-2-thiazolyl) 2,5-diphenyl tetrazolium bromide (MTT; Sigma-Aldrich, St. Louis, Mo.). […] The optical density of this solution was measured at 570 nm and the percentage of viable cells estimated by comparison with untreated control cells. […]

SKN-SH wild type cells = test: MTT cytotoxicity assay, SKN-SH wild type cells; type: cell-based; conditions: Homo sapiens, SK-N-SH, 96 h, read-out: IC50 of the cytotoxic agent alone
Protocol: as §4, §5

Saos2 wild type = test: MTT cytotoxicity assay, Saos2 wild type cells; type: cell-based; conditions: Homo sapiens, SAOS-2, 96 hours, read-out: IC50 of doxorubicin alone (converted)
Protocol: as §2, §3

[5] = tested on: Doxorubicin resistant human neuroblastoma cells (SKN-SH/R); test: Tumor growth of SKN-SH/R cells injected into nude mice; type: in vivo; conditions: nude mice, i.p. on day 11, 14, 17; doxorubicin alone 1.5 mg/Kg or iCL alone 30 mg/Kg
Protocol: Doxorubicin resistant human neuroblastoma cells (SKN-SH/R) cells grown into 75 cm^2 flasks were harvested by trypsinization and centrifuged to remove trypsin. The pellet was then reconstituted in culture medium at 10^7 cell/ml. On day one, 100 μl (10^6 cells) were injected to the right flank of nude mice (5 per group) and after the tumor became palpable at day 11, mice were assigned to four groups: 1) controls (treated with the vehicle DMSO), 2) Dox. 1.5 mg/kg (treated with doxorubicin alone 1.5 mg/Kg), 3) iCL 30 mg/Kg (treated with cathepsin L inhibitor alone at 30 mg/Kg), and 4) Dox 1.5 mg/Kg+iCL 30 mg/Kg (treated with the combination of doxorubicin 1.5 mg/Kg and cathepsin L inhibitor 30 mg/Kg). Intraperetoneal injections were given on day 11, day 14, and day 17.

HL-60 wild type = test: MTT cytotoxicity assay, HL-60 wild type cells; type: cell-based; conditions: Homo sapiens, 96 hours, read-out: IC50 of doxorubicin alone (converted)
Protocol: as §2, §3

[6] = tested on: Neuro2A doxorubicin resistant cells; test: MTT cytotoxicity assay, Neuro2A doxorubicin resistant cells; type: cell-based, murine; conditions: Mus musculus, N2a, 96 hours, read-out: IC50 of doxorubicin alone (converted)
Protocol: as §2, §3

[7] = tested on: HL-60 doxorubicin resistance cells; test: MTT cytotoxicity assay, HL-60 doxorubicin resistant cells; type: cell-based; conditions: Homo sapiens, 96 hours, read-out: IC50 of doxorubicin alone (converted)
Protocol: as §2, §3

[8] = tested on: Drug-sensitive cells SKN-SH; test: Prevention of development of doxorubicin resistance, viable cell count, SKN-SH; type: cell-based, human; conditions: repeated four-day treatments with increasing doxorubicin
From the text: (§6) As discussed above, inhibition of cathepsin L enhanced drug response only in drug-resistant cells. Another aspect of the present invention was to determine whether treatment of drug-sensitive cancer cells with this drug combination prevents them from becoming drug resistant. […] After 4 days in culture, the surviving cells were subjected to the same treatment for an additional four days. The cells were then subjected to two subsequent treatments for four days with 2.5×10^−8 M doxorubicin with or without the cathepsin L inhibitor at 10 μM. The surviving cells were then treated with doxorubicin 5×10^−8 M doxorubicin with or without cathepsin L (10 μM) for four days. At the end of each incubation period, viable cells were counted.

Neuro2A wild type = test: MTT cytotoxicity assay, Neuro2A wild type cells; type: cell-based, murine; conditions: Mus musculus, N2a, 96 hours, read-out: IC50 of doxorubicin alone (converted)
Protocol: as §2, §3

[9] = tested on: Drug-sensitive cells Saos2; test: Prevention of development of doxorubicin resistance, viable cell count, Saos2; type: cell-based; conditions: repeated four-day treatments with increasing doxorubicin
From the text: as §6

| cathepsin L activity (arbitrary units) in presence of inhibitor (Purified cathepsin L) | Structure (SMILES) | expression of p21/WAF1 (Western blot), combination with doxorubicin 10^−6M (p21/WAF1; cathepsin L inhibitor 10 μM + doxorubicin 10^−6M) | expression of p21/WAF1 (Western blot), combination with doxorubicin 10^−7M (p21/WAF1; cathepsin L inhibitor 10 μM + doxorubicin 10^−7M) | cell number, in combination with doxorubicin [1] | caspase-3 activation (Western blot), combination with doxorubicin 10^−6M (caspase-3) | IC50 [2] | viability at 25 µM [3] | viability at 25 µM [4] | IC50 (SKN-SH/R cells) | IC50 (SKN-SH wild type cells) | IC50 (Saos2 wild type) | average tumor volume on day 27, single agent [5] | IC50 (HL-60 wild type) | IC50 [6] | IC50 [7] | change in percentage of viable cells over successive treatments, doxorubicin alone [8] | IC50 (Neuro2A wild type) | effect on percentage of viable cells over successive treatments, doxorubicin alone [9] |
| --- | --- | --- | --- | --- | --- | --- | --- | --- | --- | --- | --- | --- | --- | --- | --- | --- | --- | --- |
| 1e+5 AU | CC(C)(C)Oc1ccc(C[C@H](NC(=O)[C@H](Cc2ccccc2)NC(=O)OCc2ccccc2)C(=O)C=[N+]=[N-])cc1 [cathepsin L inhibitor, Z-Phe-Tyr(t-Bu)-diazomethylketone] (Cbz-Phe-Tyr(tBu)-CHN2) | decreased expression of p21/WAF1 | enhanced expression of p21/WAF1 | 2.0e+5 AU | increased caspase-3 activation |  |  |  |  |  |  |  |  |  |  |  |  |  |
|  | COc1cccc2c1C(=O)c1c(O)c3c(c(O)c1C2=O)C[C@@](O)(C(=O)CO)C[C@@H]3O[C@H]1C[C@H](N)[C@H](O)[C@H](C)O1 [doxorubicin] |  |  |  |  | ~5620 nM | ~70% | ~50% | ~178 nM | ~1.78 nM | ~100 nM | approximately 1600 mm^3 | ~56.2 nM | ~3160 nM | ~31600 nM | no change | ~31.6 nM | no affect |
